Source: patent US8530235B2, “Medium that supports culture of an oocyte and modulation of granulosa cell apoptosis” (Adelaide Research & Innovation Pty Ltd., priority 2005, dated 2013)

How the values were obtained:
cumulus cells [1] = assay: Cumulus cell apoptosis in oocytectomized complexes (OOX) and COC, TUNEL with confocal microscopy; type: cell-based, Bovine
Description: Bovine ovaries were collected from local abattoir and transported to the laboratory in warm saline (30-35° C.). Cumulus-oocyte complexes (COC) were aspirated from antral follicles (2- to 8-mm diameter) using an 18-gauge needle and a 10-ml syringe containing ˜2 ml aspiration media (Hepes-buffered Tissue Cultured Medium-199: TCM-199, ICN Biochemicals, Irvine, Calif., USA) supplemented with 50 μg/ml kanamycin (Sigma-Aldrish, St. louis, Mo.), 4 mg/ml fatty acid-free bovine serum albumin (FAF-BSA) (ICPbio ltd, Auckland, NZ). Intact COC with compact cumulus vestment greater than five cell layers and evenly pigmented cytoplasm were selected under a dissecting microscope and washed twice in Hepes-buffered TCM-199 and once in corresponding culturing media.
The cytoplasm of each oocyte was microsurgically removed from the COC (oocytectomy) using a micromanipulator as described in Buccione et al (Buccione et al. (1990) Dev Biol 138, 16-25.). The resulting oocytectomized complex (OOX) consists of a hollow zona pellucida surrounded by several layers of intact CC.
Denuded oocytes (DO) were generated by removing CC from COC by vortexing for approximately 4 minutes in 2 ml H-TCM-199/BSA. Any remaining CC were removed by repeated passage of the oocytes through a fine-bore fire-polished glass pipette in H-TCM-199/BSA.
CC apoptoic DNA was detected using TUNEl (Roche Diagnostic, Penzberg, Germany) according to the manufacturer's instructions. Briefly, following culture COC and OOX complexes were washed twice in PBS (pH 7.4) containing 1% BSA, fixed in 4% paraformaldehyde in PBS (pH 7.4) overnight at 4° C. and washed twice with PBS/BSA before placing on Cell-Tak-coated coverslips (Beckton Dickinson Biosciences, Franklin lakes, N.J.). Complexes were then permeabilized in 0.11/u Triton X-100 in 0.1% sodium citrate for 1 hour at room temperature and washed 3 times in PBS/BSA. The complexes were then incubated in fluorescein-conjugated dUTP and terminal deoxynucleotide transferase (TUNEl reagents, Roche) for 1 hour at 37° C. in the dark. Positive controls were incubated in DNAse 1 (0.005 U/µl), which cleaves all DNA, for 20 minutes at room temperature and washed twice in PBS/BSA before TUNEl. Negative controls were incubated in fluorescein-dUTP in the absence of TdT. After TUNEl, complexes were washed twice in PBS/BSA and counterstained with propidium iodide 0.5 μg/ml (PI) plus RNase A (0.1 mg/ml) for 1 hour at room temperature in the dark to label all nuclei. Complexes were then washed twice in PBS/BSA and mounted with slight coverslip compression in VectaShield anti-bleaching solution (Vector labs, Burlingame, Calif.), and stored in the dark at 4° C. for confocal analysis.
Apoptosis in COC and OOX was visualised and quantified using confocal microscopy. Dual fluorescence emission from CC was detected using a Nikon C1 Confocal Scanning Head and a Nikon TE2000E microscope (Nikon, Tokyo, Japan). Simultaneous emission capture of the apoptotic signal (fluorescein, lacer excitation 488 nm, emission 510-530 nm) and the nuclear signal (propidium iodide, excitation lacer 532, emission 590-640 nm) was performed.
In order to generate an accurate representation of the overall apoptotic incidence for all complexes, the depth of each complex was measured through a Z series to divide the construct into three percentiles (optical Z plane sections) at 25%, 50% and 75%. These optical section images were acquired and saved as independent colour channels (green, apoptotic cumulus fluorescence and red, nuclear cumulus fluorescence). The captured images were then processed in Scanalytics IPlab software Version 3.6. (Scanalytics, Fairfax, Va.). Quantification of CC number (for each colour channel) was independently measured using a macro script utilizing an auto segmentation filter for each optical section percentile (3 optical “z”-plane sections for each complex).

cumulus-oocyte complexes = assay: Study IV: oocyte developmental competence after IVM, IVF and embryo culture; type: cell-based, Bovine
Description: Unless otherwise specified, all chemicals and reagents were purchased from Sigma (St Louis, Mo.). Bovine ovaries were collected from local abattoirs and transported to the laboratory in warm saline (30-35° C.). COCs were aspirated from antral follicles (3 to 5 mm diameter) using an 18-gauge needle and a 10-ml syringe containing ˜2 ml aspiration medium (Hepes-buffered. Tissue Cultured Medium-199; TCM-199. ICN Biochemicals, Irvine, Calif., USA) supplemented with 50 μg/ml kanamycin, 0.5 mM sodium pyruvate, 50 μg/ml heparin and 4 mg/ml fatty acid-free bovine serum albumin (FAF-BSA; ICPbio Ltd, Aukland, NZ). Intact COCs with compact cumulus vestments>˜5 cell layers and evenly pigmented cytoplasm were selected under a dissecting microscope and washed twice in Hepes-buffered TCM-199 and once in Hepes-buffered TCM-199 supplemented with 10% fetal calf serim (FCS) (Invitrogen, Carlsbad, Calif.). The basic medium for oocyte maturation was Bovine VitroMat (Cook Australia, Eight Mile Plains, Qld, Australia), a medium based on the ionic composition of bovine follicular fluid. […] Complexes were cultured in pre-equilibrated 300 ? l drops overlaid with mineral oil and incubated at 39° C. with 5% CO2 in humidified air for 24 hour. […]
Recombinant mouse GDF9 and recombinant ovine BMP15 were produced and partially purified in-house as previously described using transfected 293 human embryonic kidney cell lines (293H) originally donated by O. Ritvos (University of Helsinki). Control conditioned medium (hereafter designated ‘293H’) was produced from untransfected 293H cells and subjected to the same chromatography procedures as GDF9 and BMP15 conditioned media.
Consequently, SB-431542 potently antagonizes the ALK 4/5 ligands; TGF-β1, the activins and GDF9, without affecting BMP signalling (Inman et al., 2002; Gilchrist et al., 2006). […] Follistatin-288 was generously donated by S. Shimasaki (University of California San Diego, USA) and we have previously shown that this binding protein antagonizes the bioactivities of native OSFs and recombinant BMP15 in CCs.
In vitro production of embryos was undertaken using defined, serum-free media (Bovine Vitro series of media, Cook Australia). Frozen semen from a single bull of proven fertility was used in all experiments. Briefly, thawed semen was layered over a discontinuous (45%: 90%) Percoll gradient (Amersham Bioscience) and centrifuged (RT) for 20-25 mins at 700 g. The supernatant was removed and the sperm pellet was washed with 500 μl Bovine VitroWash (Cook Australia) and centrifuged for a further 5 minutes at 200 g. Spermatozoa were resuspended with IVF medium (Bovine VitroFert, Cook Australia), then added to the fertilization media drops (Bovine VitroFert, supplemented with 0.01 mM heparin, 0.2 mM penicillamine and 0.1 mM hypotaurine) at a final concentration of 1×106 spermatozoa/ml. COCs were inseminated at a density of 10 μl of IVF medium per COC for 24 h, at 39° C. in 6% CO2 in humidified air.
CCs were removed by gentle pipetting 23-24 h post insemination and five presumptive zygotes were transferred into 20 μl drops of pre-equilibrated Cook Bovine VitroCleave medium (Cook Australia) and cultured under mineral oil at 38.5° C. in 7% O2, 6% CO2, balance N2, for five days (day 1 to day 5).
On Day 5, embryos were transferred in groups of 5-6 to 20 μl drops of pre-equilibrated Bovine VitroBlast (Cook Australia) at 38.5° C. overlaid with mineral oil and cultured to Day 8. Embryos were assessed for quality at Day 8 according to the definitions presented in the Manual of the International Embryo Transfer Society (Stringfellow, 1998) and were performed independently and blinded by an experienced bovine embryologist.
Cell counts were performed using a modified version of the technique described by (Fouladi-Nashta et al., 2005). […]

[2] = system: cumulus expansion of oocytectomised (OOX) complexes; assay: FSH-induced cumulus expansion score of OOX complexes; type: cell-based, mice
Description: Members of the TGF-β superfamily are prime candidates for the mouse cumulus expansion-enabling factor (CEEF). This study was conducted to examine TGF-β superfamily processes regulating cumulus expansion. COCs were collected from eGG-primed mice and the oocyte microsurgically removed to generate oocytectomised (OOX) complexes. […] The type-I receptors for GDF9 and […] are ALK5 and ALK4, respectively. We tested the ability of an ALK4/5/7 kinase inhibitor to neutralize cumulus expansion.

cumulus cells [3] = assay: Staurosporine-induced cumulus cell apoptosis in OOX (TUNEL); type: cell-based, Bovine; conditions: for incidence of CC apoptosis: OOX alone, without 41%; for CC apoptosis of treated OOX exposed to staurosporine: 10% BMP-15 or 10 ng/ml BMP-6
Description: CC apoptoic DNA was detected using TUNEl (Roche Diagnostic, Penzberg, Germany) according to the manufacturer's instructions. […] Complexes were then permeabilized in 0.11/u Triton X-100 in 0.1% sodium citrate for 1 hour at room temperature and washed 3 times in PBS/BSA. The complexes were then incubated in fluorescein-conjugated dUTP and terminal deoxynucleotide transferase (TUNEl reagents, Roche) for 1 hour at 37° C. in the dark. Positive controls were incubated in DNAse 1 (0.005 U/µl), which cleaves all DNA, for 20 minutes at room temperature and washed twice in PBS/BSA before TUNEl. Negative controls were incubated in fluorescein-dUTP in the absence of TdT. After TUNEl, complexes were washed twice in PBS/BSA and counterstained with propidium iodide 0.5 μg/ml (PI) plus RNase A (0.1 mg/ml) for 1 hour at room temperature in the dark to label all nuclei. Complexes were then washed twice in PBS/BSA and mounted with slight coverslip compression in VectaShield anti-bleaching solution (Vector labs, Burlingame, Calif.), and stored in the dark at 4° C. for confocal analysis. […] These optical section images were acquired and saved as independent colour channels (green, apoptotic cumulus fluorescence and red, nuclear cumulus fluorescence). The captured images were then processed in Scanalytics IPlab software Version 3.6. (Scanalytics, Fairfax, Va.). Quantification of CC number (for each colour channel) was independently measured using a macro script utilizing an auto segmentation filter for each optical section percentile (3 optical “z”-plane sections for each complex). A percentage of apoptotic nuclei were generated for each slice and the three percentile values were then averaged to achieve a representation of the total apoptotic nuclei percentage for the whole complex. These processes were repeated separately on each individual complex. A preliminary experiment was conducted to determine the apoptotic effect of staurosporine on bovine CC, which induced apoptosis in a dose-dependent manner (range; 0.1-100 μM, data not shown). The aim of this experiment was to determine whether OSF could prevent CC from undergoing apoptosis induced by staurosporine. OOX alone or co-cultured with 35 DO, 10 ng/ml BMP-6 or 10% (v/v) BMP-15, and were then exposed to either 0.1 μM or 1.0 μM staurospourine for the last 6 hours of the 24 hour incubation period. Three replicates of this experiment were carried out using 10 OOX per treatment group per replicate experiment.

With follistatin [reference compound] the “apoptosis of BMP-15-treated OOXs with antagonist” value (cumulus cells [1]; OOX + 10% v/v BMP-15, follistatin 0-100 μg/ml) was “dose-dependent increase in apoptosis”, the “antagonism of the anti-apoptotic effects of oocytes on cumulus cells” value (cumulus cells [1]; OOX + 25 DO, 50 μg/ml follistatin or 20 μg/ml BMP-6 NAb alone) was ~50% and the “blastocyst development of control COCs treated with antagonist” value (cumulus-oocyte complexes; 4 μM SB-431542 or 10 μg/ml follistatin-288, compared to untreated COCs) was “significantly (P<0.05) decreased”. For the same molecule, the “cleavage rate of oocytes” value (cumulus-oocyte complexes; 10 μg/ml follistatin-288 during IVM, regardless of BMP15 treatment, control 76.2±1.3, p=0.007, in %) was 71.8±1.3, the “increase of blastocyst yields by GDF9 or BMP15 on addition of the respective antagonist” value (cumulus-oocyte complexes; SB-431542 against GDF9, follistatin against BMP15) was “ablated” and the “cumulus expansion score with follistatin” value ([2]; OOX complexes co-cultured with oocytes, no significant effect (p>0.05)) was 2.7±0.2. The “cumulus expansion score with follistatin” value ([2]; response of OOX complexes to activin) was 0.

With `CN[C@@H]1C[C@H]2O[C@@](C)([C@@H]1OC)n1c3ccccc3c3c4c(c5c6ccccc6n2c5c31)C(=O)NC4` [staurosporine, reference compound] the “incidence of CC apoptosis” value (cumulus cells [3]; 0.1 μM staurosporine for the last 6 h of 24 h) was 51% and the “incidence of CC apoptosis” value (cumulus cells [3]; 1.0 μM staurosporine for the last 6 h of 24 h) was 74%.

B1: BMP-6: Recombinant human BMP-6 obtained from R&D systems (protein, UniProt P22004 375-513, looked up)
Bone morphogenetic protein 6: SASSRRRQQSRNRSTQSQDVARVSSASDYNSSELKTACRKHELYVSFQDLGWQDWIIAPKGYAANYCDGECSFPLNAHMNATNHAIVQTLVHLMNPEYVPKPCCAPTKLNAISVLYFDDNSNVILKKYRNMVVRACGCH
For B1, the “CC apoptosis of treated OOX exposed to staurosporine” value (cumulus cells [3]; 0.1 μM staurosporine) was 21%, the “CC apoptosis of treated OOX exposed to staurosporine” value (cumulus cells [3]; 1 μM staurosporine) was 31% and the “effect on incidence of cumulus cell apoptosis” value (cumulus cells [1]; OOX cultured with increasing doses (GDF-9 0-175 ng/ml, BMP-6 0-100 ng/ml, BMP-15 0-20% v/v, 5-50 DO), presence or absence of FSH) was “significantly decreased”. The “effect on CC apoptosis, test for additive effect” value (cumulus cells [1]; OOX treated with DO, 10 ng/ml BMP-6 and/or 10% v/v BMP-15) was “significantly (P<0.001) decreased”.

B2: gremlin: BMP antagonist (BMP-2, BMP-4, BMP-7) obtained from R&D systems (protein, UniProt O60565 25-184, looked up)
Gremlin-1: KKKGSQGAIPPPDKAQHNDSEQTQSPQQPGSRNRGRGQGRGTAMPGEEVLESSQEALHVTERKYLKRDWCKTQPLKQTIHEEGCNSRTIINRFCYGQCNSFYIPRHIRKEEGSFQSCSFCKPKKFTTMMVTLNCPELQPPTKKKRVTRVKQCRCISIDLD
For B2, the “antagonism of the inhibitory effect of BMP-7 on CC apoptosis” value (cumulus cells [1]; OOX + 100 ng/ml BMP-7, 2 μg/ml gremlin, not when BMP-15 was present) was “significantly (P<0.001) reversed” and the “apoptosis of BMP-15-treated OOXs with antagonist” value (cumulus cells [1]; OOX + 10% BMP-15, increasing dose of gremlin (0-40 μg/ml)) was “not significantly increased”.

B3: activin A: TGF-β superfamily member, ligand of ALK4 (protein, UniProt P08476 311-426, looked up)
Inhibin beta A chain: GLECDGKVNICCKKQFFVSFKDIGWNDWIIAPSGYHANYCEGECPSHIAGTSGSSLSFHSTVINHYRMRGHSPFANLKSCCVPTKLRPMSMLYYDDGQNIIKKDIQNMIVEECGCS
modifications: Inhibin beta A chain
notes: TGF-β superfamily member, ligand of ALK4
With B3 the cumulus expansion score ([2]; score 0 (no expansion) to +4 (maximum expansion), mean ±SEM, OOX complexes with FSH) was 2.6±0.1.
